# PubChem BioAssay AID256 (DTP/NCI, 2004)
# Several values for one entry are separate records, joined by “and”; a condition that tells them apart may be missing. Equal values may be shown once. Inconclusive results and toxic doses are left out.
# Tested on: CD2F1 mice, L1210 leukemia ip, survival T/C
# Assay: NCI In Vivo Anticancer Drug Screen. Data for tumor model L1210 Leukemia (intraperitoneal) in CD2F1 (CDF1) mice
# Conditions: higher = longer survival
# Procedure, shortened: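 Implant tumor; dose compound or vehicle; measure endpoint in both groups; report treated divided by control.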
smiles,measurement,setting,value
CN(C)CCN1C(=O)c2cccc3cc(N)cc(c23)C1=O,T/C,"endpoint: mean survival time, dose: 1.0 mg/kg/injection, schedule: Q01DX009 (ip), vehicle: saline with Tween-80",92 % of control and 104 % of control
same,T/C,"endpoint: mean survival time, dose: 2.0 mg/kg/injection, schedule: Q01DX009 (ip), vehicle: saline with Tween-80",101 % of control and 102 % of control
same,T/C,"endpoint: mean survival time, dose: 4.0 mg/kg/injection, schedule: Q01DX009 (ip), vehicle: saline with Tween-80",107 % of control and 108 % of control
same,T/C,"endpoint: mean survival time, dose: 16.0 mg/kg/injection, schedule: Q01DX009 (ip), vehicle: saline with Tween-80",175 % of control and 197 % of control
same,T/C,"endpoint: mean survival time, dose: 32.0 mg/kg/injection, schedule: Q01DX009 (ip), vehicle: saline with Tween-80",89 % of control and 96 % of control
same,T/C,"endpoint: median survival time, dose: 1.0 mg/kg/injection, schedule: Q01DX009 (ip), vehicle: acid diluted with saline",99 % of control
same,T/C,"endpoint: median survival time, dose: 1.2 mg/kg/injection, schedule: Q03HX024 (ip), vehicle: water",113 % of control
same,T/C,"endpoint: median survival time, dose: 1.8 mg/kg/injection, schedule: Q03HX024 (ip), vehicle: water",117 % of control
same,T/C,"endpoint: median survival time, dose: 2.0 mg/kg/injection, schedule: Q01DX009 (ip), vehicle: acid diluted with saline",97 % of control and 107 % of control
same,T/C,"endpoint: median survival time, dose: 2.0 mg/kg/injection, schedule: Q01DX009 (ip), vehicle: saline with Tween-80",105 % of control
same,T/C,"endpoint: median survival time, dose: 2.7 mg/kg/injection, schedule: Q03HX024 (ip), vehicle: water",115 % of control
same,T/C,"endpoint: median survival time, dose: 2.9 mg/kg/injection, schedule: Q01DX005 (iv), vehicle: water",108 % of control
same,T/C,"endpoint: median survival time, dose: 3.2 mg/kg/injection, schedule: Q01DX009 (ip), vehicle: saline",118 % of control
same,T/C,"endpoint: median survival time, dose: 3.2 mg/kg/injection, schedule: Q01DX009 (ip), vehicle: water",105 % of control
same,T/C,"endpoint: median survival time, dose: 3.65 mg/kg/injection, schedule: Q03HX008 (ip), vehicle: water",118 % of control
same,T/C,"endpoint: median survival time, dose: 4.0 mg/kg/injection, schedule: Q01DX009 (ip), vehicle: acid diluted with saline",113 % of control and 99 % of control
same,T/C,"endpoint: median survival time, dose: 4.0 mg/kg/injection, schedule: Q01DX009 (ip), vehicle: saline with Tween-80",116 % of control
same,T/C,"endpoint: median survival time, dose: 4.35 mg/kg/injection, schedule: Q01DX005 (iv), vehicle: water",105 % of control
same,T/C,"endpoint: median survival time, dose: 4.7 mg/kg/injection, schedule: Q01DX009 (ip), vehicle: water",124 % of control
same,T/C,"endpoint: median survival time, dose: 5.0 mg/kg/injection, schedule: Q01DX009 (ip), vehicle: acid diluted with saline",113 % of control
same,T/C,"endpoint: median survival time, dose: 5.44 mg/kg/injection, schedule: Q03HX008 (ip), vehicle: water",120 % of control
same,T/C,"endpoint: median survival time, dose: 5.76 mg/kg/injection, schedule: Q01DX005 (ip), vehicle: water",117 % of control
same,T/C,"endpoint: median survival time, dose: 6.03 mg/kg/injection, schedule: Q03HX024 (ip), vehicle: water",154 % of control
same,T/C,"endpoint: median survival time, dose: 6.5 mg/kg/injection, schedule: Q01DX005 (iv), vehicle: saline with Tween-80",105 % of control
same,T/C,"endpoint: median survival time, dose: 6.5 mg/kg/injection, schedule: Q01DX005 (iv), vehicle: water",113 % of control
same,T/C,"endpoint: median survival time, dose: 7.0 mg/kg/injection, schedule: Q01DX009 (ip), vehicle: acid diluted with saline",114 % of control
same,T/C,"endpoint: median survival time, dose: 7.1 mg/kg/injection, schedule: Q01DX009 (ip), vehicle: saline with Tween-80",123 % of control
same,T/C,"endpoint: median survival time, dose: 8.0 mg/kg/injection, schedule: Q01DX009 (ip), vehicle: acid diluted with saline",118 % of control
same,T/C,"endpoint: median survival time, dose: 8.46 mg/kg/injection, schedule: Q01DX005 (ip), vehicle: saline with Tween-80",114 % of control
same,T/C,"endpoint: median survival time, dose: 8.46 mg/kg/injection, schedule: Q01DX005 (ip), vehicle: water",120 % of control
same,T/C,"endpoint: median survival time, dose: 9.0 mg/kg/injection, schedule: Q03HX024 (ip), vehicle: water",209 % of control
same,T/C,"endpoint: median survival time, dose: 9.7 mg/kg/injection, schedule: Q01DX005 (iv), vehicle: saline with Tween-80",114 % of control
same,T/C,"endpoint: median survival time, dose: 9.7 mg/kg/injection, schedule: Q01DX005 (iv), vehicle: water",120 % of control
same,T/C,"endpoint: median survival time, dose: 9.7 mg/kg/injection, schedule: Q04DX003 (ip), vehicle: water",120 % of control
same,T/C,"endpoint: median survival time, dose: 10.0 mg/kg/injection, schedule: Q01DX009 (ip), vehicle: acid diluted with saline",117 % of control
same,T/C,"endpoint: median survival time, dose: 10.7 mg/kg/injection, schedule: Q01DX009 (ip), vehicle: saline",165 % of control
same,T/C,"endpoint: median survival time, dose: 11.0 mg/kg/injection, schedule: Q01DX009 (ip), vehicle: saline with Tween-80",150 % of control and 167 % of control
same,T/C,"endpoint: median survival time, dose: 12.1 mg/kg/injection, schedule: Q03HX008 (ip), vehicle: water",174 % of control
same,T/C,"endpoint: median survival time, dose: 13.4 mg/kg/injection, schedule: Q03HX024 (ip), vehicle: water",103 % of control
same,T/C,"endpoint: median survival time, dose: 14.5 mg/kg/injection, schedule: Q04DX003 (ip), vehicle: water",120 % of control
same,T/C,"endpoint: median survival time, dose: 14.6 mg/kg/injection, schedule: Q01DX001 (iv), vehicle: water",112 % of control
same,T/C,"endpoint: median survival time, dose: 16.0 mg/kg/injection, schedule: Q01DX009 (ip), vehicle: acid diluted with saline",175 % of control and 217 % of control and 112 % of control
same,T/C,"endpoint: median survival time, dose: 16.0 mg/kg/injection, schedule: Q01DX009 (ip), vehicle: saline",206 % of control
same,T/C,"endpoint: median survival time, dose: 16.0 mg/kg/injection, schedule: Q01DX009 (ip), vehicle: water",187 % of control
same,T/C,"endpoint: median survival time, dose: 19.3 mg/kg/injection, schedule: Q01DX005 (ip), vehicle: saline with Tween-80",158 % of control
same,T/C,"endpoint: median survival time, dose: 19.3 mg/kg/injection, schedule: Q01DX005 (ip), vehicle: water",183 % of control
same,T/C,"endpoint: median survival time, dose: 21.6 mg/kg/injection, schedule: Q01DX005 (iv), vehicle: saline with Tween-80",162 % of control
same,T/C,"endpoint: median survival time, dose: 21.6 mg/kg/injection, schedule: Q01DX005 (iv), vehicle: water",182 % of control
same,T/C,"endpoint: median survival time, dose: 21.8 mg/kg/injection, schedule: Q01DX001 (iv), vehicle: water",113 % of control
same,T/C,"endpoint: median survival time, dose: 24.0 mg/kg/injection, schedule: Q01DX009 (ip), vehicle: saline with Tween-80",158 % of control and 163 % of control
same,T/C,"endpoint: median survival time, dose: 24.0 mg/kg/injection, schedule: Q01DX009 (ip), vehicle: saline",118 % of control
same,T/C,"endpoint: median survival time, dose: 24.0 mg/kg/injection, schedule: Q01DX009 (ip), vehicle: water",117 % of control
same,T/C,"endpoint: median survival time, dose: 28.8 mg/kg/injection, schedule: Q01DX001 (ip), vehicle: water",120 % of control
same,T/C,"endpoint: median survival time, dose: 28.8 mg/kg/injection, schedule: Q01DX005 (ip), vehicle: saline with Tween-80",187 % of control
same,T/C,"endpoint: median survival time, dose: 28.8 mg/kg/injection, schedule: Q01DX005 (ip), vehicle: water",195 % of control
same,T/C,"endpoint: median survival time, dose: 28.9 mg/kg/injection, schedule: Q01DX009 (oral), vehicle: water",174 % of control
same,T/C,"endpoint: median survival time, dose: 32.0 mg/kg/injection, schedule: Q01DX009 (ip), vehicle: acid diluted with saline",95 % of control
same,T/C,"endpoint: median survival time, dose: 32.0 mg/kg/injection, schedule: Q01DX009 (ip), vehicle: saline with Tween-80",90 % of control and 108 % of control
same,T/C,"endpoint: median survival time, dose: 32.2 mg/kg/injection, schedule: Q01DX005 (iv), vehicle: saline with Tween-80",96 % of control
same,T/C,"endpoint: median survival time, dose: 32.3 mg/kg/injection, schedule: Q04DX003 (ip), vehicle: water",196 % of control
same,T/C,"endpoint: median survival time, dose: 36.0 mg/kg/injection, schedule: Q01DX009 (ip), vehicle: saline",93 % of control
same,T/C,"endpoint: median survival time, dose: 43.1 mg/kg/injection, schedule: Q01DX009 (oral), vehicle: water",108 % of control
same,T/C,"endpoint: median survival time, dose: 43.2 mg/kg/injection, schedule: Q01DX005 (ip), vehicle: saline with Tween-80",95 % of control
same,T/C,"endpoint: median survival time, dose: 48.3 mg/kg/injection, schedule: Q04DX003 (ip), vehicle: water",244 % of control
same,T/C,"endpoint: median survival time, dose: 72.0 mg/kg/injection, schedule: Q04DX003 (ip), vehicle: water",108 % of control
CCNCc1cc(Nc2nc(NC3CCC(N(C)C)CC3)c3ccccc3n2)ccc1OC (stereo not given),T/C,"endpoint: mean survival time, dose: 5.0 mg/kg/injection, schedule: Q01DX001 (ip), vehicle: saline",97 % of control
same,T/C,"endpoint: mean survival time, dose: 5.0 mg/kg/injection, schedule: Q01DX009 (ip), vehicle: saline",96 % of control
same,T/C,"endpoint: mean survival time, dose: 10.0 mg/kg/injection, schedule: Q01DX001 (ip), vehicle: saline",92 % of control
same,T/C,"endpoint: mean survival time, dose: 10.0 mg/kg/injection, schedule: Q01DX009 (ip), vehicle: saline",96 % of control
same,T/C,"endpoint: mean survival time, dose: 20.0 mg/kg/injection, schedule: Q01DX001 (ip), vehicle: saline",97 % of control
same,T/C,"endpoint: mean survival time, dose: 20.0 mg/kg/injection, schedule: Q01DX009 (ip), vehicle: saline",107 % of control
Ic1ncnc2c1ncn2C1CCCO1 (stereo not given),T/C,"endpoint: mean survival time, dose: 50.0 mg/kg/injection, schedule: Q04DX003 (ip), vehicle: saline",96 % of control
same,T/C,"endpoint: mean survival time, dose: 100.0 mg/kg/injection, schedule: Q04DX003 (ip), vehicle: saline",94 % of control
same,T/C,"endpoint: mean survival time, dose: 200.0 mg/kg/injection, schedule: Q04DX003 (ip), vehicle: saline",94 % of control
COC(=O)c1ccc(OCCOc2ccc(C(C)(C)CC(C)(C)C)cc2)c(N)c1,T/C,"endpoint: mean survival time, dose: 100.0 mg/kg/injection, schedule: Q04DX003 (ip), vehicle: Klucel (hydroxypropylcellulose) (HPC)",94 % of control
same,T/C,"endpoint: mean survival time, dose: 200.0 mg/kg/injection, schedule: Q04DX003 (ip), vehicle: Klucel (hydroxypropylcellulose) (HPC)",100 % of control
same,T/C,"endpoint: mean survival time, dose: 400.0 mg/kg/injection, schedule: Q04DX003 (ip), vehicle: Klucel (hydroxypropylcellulose) (HPC)",101 % of control
CCc1cc2c(cc1C(=O)/C=C\c1cccc3ccccc13)C(C)(C)CCC2(C)C,T/C,"endpoint: mean survival time, dose: 6.25 mg/kg/injection, schedule: Q01DX009 (ip), vehicle: saline with Tween-80",94 % of control
same,T/C,"endpoint: mean survival time, dose: 12.5 mg/kg/injection, schedule: Q01DX009 (ip), vehicle: saline with Tween-80",86 % of control
same,T/C,"endpoint: mean survival time, dose: 25.0 mg/kg/injection, schedule: Q01DX009 (ip), vehicle: saline with Tween-80",93 % of control
